Test systems include 786-0; HCC 2998; LOX IMVI; Malme-3M; NCI-H226; NCI-H23; NCI-H522; OVCAR-3; OVCAR-4; OVCAR-8; RPMI-8226; SF-295; SNB-75; SR; TK-10; UACC-62; UO-31.
Common to all, as to test: NCI anticancer screen, dose series, 48 h

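Cells were grown in 96-well plates and exposed to each compound for 48 hours at five concentrations; endpoints were interpolated linearly between bracketing concentrations, or set to the highest concentration if not reached. Here, GI50 denotes the concentration required for 50% inhibition of growth.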 Active and inactive are the calls of the source. No stated cut-off is given here; in the data, active = GI50 up to about 1.1 µM and inactive = higher. Bounds are passed on as bounds.

`CC1=CC2=C(C)C3(CC3)[C@@](C)(O)C(=O)C2=C1`: the GI50 is 0.217 µM (active) in the assay with 786-0; 0.178 µM (active) with HCC 2998; 0.174 µM (active) in the assay with LOX IMVI; 0.0933 µM (active) with Malme-3M; 0.231 µM (active) in the assay on NCI-H226; 0.0822 µM (active) with NCI-H23. Also, the GI50 is 0.145 µM (active) in the assay on NCI-H522; 0.182 µM (active) with OVCAR-3; 0.174 µM (active) with OVCAR-4; 0.211 µM (active) with OVCAR-8; > 1 µM (active) in the assay with RPMI-8226; 0.223 µM (active) in the assay with SF-295. The GI50 is 0.19 µM (active) in the assay on SNB-75; > 1 µM (active) with SR; 0.329 µM (active) in the assay with TK-10; 0.21 µM (active) in the assay with UACC-62; 0.19 µM (active) in the assay with UO-31.

With `N#C/C(=C/c1ccc[nH]1)P(=O)(O)O`, the GI50 with 786-0, in the assay on HCC 2998, in the assay on LOX IMVI, in the assay on Malme-3M, in the assay on NCI-H226 and in the assay on NCI-H23 was > 100 µM (inactive) in each case. The GI50 in the assay on NCI-H522, in the assay with OVCAR-3, in the assay with OVCAR-4, with OVCAR-8, with RPMI-8226 and in the assay on SF-295 was > 100 µM (inactive) throughout. In addition, the GI50 was 80.4 µM (inactive) in the assay with SNB-75; > 100 µM (inactive) with SR; > 100 µM (inactive) in the assay with TK-10; > 100 µM (inactive) in the assay on UACC-62; > 100 µM (inactive) with UO-31.

For `O=C(O)COc1ccc(C(=O)/C(SS/C(C(=O)c2ccc(OCC(=O)O)c(Cl)c2Cl)=C2\C=C(c3ccccc3Cl)SS2)=C2/C=C(c3ccccc3Cl)SS2)c(Cl)c1Cl`, the GI50 in the assay on 786-0 was 19.8 µM (inactive); in the assay on HCC 2998, 57.1 µM (inactive); in the assay with LOX IMVI it was 9.89 µM (inactive); in the assay on Malme-3M, 53.8 µM (inactive); in the assay on NCI-H226 it was 17.7 µM (inactive); with NCI-H23, 22 µM (inactive). The GI50 in the assay on NCI-H522 was 3.27 µM (inactive); in the assay on OVCAR-3, 17.9 µM (inactive); in the assay with OVCAR-4, 19.8 µM (inactive); with OVCAR-8, 23.7 µM (inactive); in the assay with RPMI-8226, 18.3 µM (inactive); with SF-295, 37.5 µM (inactive). For the same compound, the GI50 is 35.1 µM (inactive) in the assay with SNB-75; 2.23 µM (inactive) in the assay with SR; 33.3 µM (inactive) in the assay on TK-10; 23.1 µM (inactive) in the assay with UACC-62; 24.3 µM (inactive) in the assay with UO-31.

Take `CCc1cccc(C)c1NC(=O)CC1C(=O)Nc2ccccc2S1(=O)=O` (stereo not drawn): the GI50 in the assay on 786-0 was 15.7 µM (inactive); in the assay on HCC 2998 it was 16.8 µM (inactive); in the assay with LOX IMVI it was 13.2 µM (inactive); with Malme-3M it was 14.4 µM (inactive); in the assay with NCI-H226, 33 µM (inactive); in the assay on NCI-H23 it was 15.7 µM (inactive). The GI50 with NCI-H522 was 15.8 µM (inactive); in the assay on OVCAR-3, 15.2 µM (inactive); with OVCAR-4, 14.9 µM (inactive); in the assay on OVCAR-8 it was 19.8 µM (inactive); in the assay with RPMI-8226 it was 13.9 µM (inactive); in the assay on SF-295 it was 26.2 µM (inactive). Further, the GI50 is 16 µM (inactive) with SNB-75; 5.65 µM (inactive) with SR; 29.3 µM (inactive) in the assay with TK-10; 15.8 µM (inactive) in the assay on UACC-62; 13.5 µM (inactive) in the assay on UO-31.

With `Cc1nc2c(s/c(=N\N)n2-c2ccccc2)c(=O)[nH]1`, the GI50 in the assay on 786-0, with HCC 2998, in the assay on LOX IMVI, with Malme-3M, in the assay with NCI-H226 and in the assay on NCI-H23 was > 100 µM (inactive) throughout. Further, the GI50 with NCI-H522, with OVCAR-3, in the assay with OVCAR-4, with OVCAR-8, with RPMI-8226 and in the assay on SF-295 was > 100 µM (inactive) throughout. Besides, the GI50 in the assay on SNB-75, in the assay with SR, in the assay with TK-10, in the assay on UACC-62 and in the assay with UO-31 was > 100 µM (inactive) each time.

For `Nc1ccc(C(=O)N/C(=C\c2ccc3c(c2)OCO3)c2nc3c(O)nc(S)nc3[nH]2)cc1`, the GI50 in the assay with 786-0, in the assay with HCC 2998, in the assay with Malme-3M, in the assay with NCI-H23, in the assay with NCI-H522 and with OVCAR-3 was > 100 µM (inactive) throughout. In addition, the GI50 in the assay with OVCAR-4, with OVCAR-8, in the assay with SF-295, in the assay with SR, in the assay with TK-10 and in the assay on UACC-62 was > 100 µM (inactive) throughout. Besides, the GI50 in the assay on UO-31 was > 100 µM (inactive).

Turning to `O=C(NO)C(=O)Nc1ccc(Cl)cc1[N+](=O)[O-]`, the GI50 in the assay on 786-0 is > 100 µM (inactive); in the assay with HCC 2998, > 100 µM (inactive); with LOX IMVI, 51.9 µM (inactive); in the assay with Malme-3M, > 100 µM (inactive); with NCI-H226 it was > 100 µM (inactive); with NCI-H23 it was > 100 µM (inactive). The GI50 with NCI-H522, in the assay on OVCAR-3, with OVCAR-4, in the assay on OVCAR-8, in the assay on RPMI-8226 and in the assay with SF-295 was > 100 µM (inactive) each time. Moreover, the GI50 in the assay with SNB-75, in the assay on SR, in the assay on TK-10, in the assay on UACC-62 and in the assay on UO-31 was > 100 µM (inactive) in each case.

Take `CCOc1ccc(NC(=O)C(=O)CC(=O)c2c[n+]([O-])c3cc(C)c(C)cc3[n+]2[O-])cc1`: the GI50 in the assay with 786-0, with HCC 2998, in the assay on LOX IMVI, with Malme-3M, in the assay on NCI-H226 and with NCI-H23 was > 100 µM (inactive) each time. In addition, the GI50 in the assay on NCI-H522, in the assay on OVCAR-3, in the assay on OVCAR-4, with OVCAR-8, in the assay with RPMI-8226 and with SF-295 was > 100 µM (inactive) throughout. Further, the GI50 in the assay on SNB-75, in the assay on SR, in the assay with TK-10, in the assay with UACC-62 and with UO-31 was > 100 µM (inactive) in each case.

Take `Cc1cc2oc(-c3ccccc3)c(C)c(=O)c2c2c1OC(C)(C)S2`: the GI50 in the assay with 786-0, in the assay on HCC 2998, in the assay with LOX IMVI, in the assay with Malme-3M, in the assay with NCI-H226 and in the assay with NCI-H23 was > 100 µM (inactive) in each case. The GI50 with NCI-H522 is 72.3 µM (inactive); in the assay with OVCAR-3 it was > 100 µM (inactive); with OVCAR-4, > 100 µM (inactive); with OVCAR-8 it was > 100 µM (inactive); with RPMI-8226 it was 47 µM (inactive); in the assay with SF-295 it was > 100 µM (inactive). Besides, the GI50 in the assay with SNB-75 was > 100 µM (inactive); in the assay with SR it was 29.6 µM (inactive); with TK-10, > 100 µM (inactive); in the assay on UACC-62 it was > 100 µM (inactive); in the assay on UO-31, > 100 µM (inactive).

Regarding `CC1=NNC(=O)C2CCC(=O)N12` (stereo not drawn), the GI50 in the assay on 786-0, in the assay with HCC 2998, in the assay with Malme-3M, in the assay with NCI-H226, in the assay with NCI-H522 and in the assay with OVCAR-3 was > 100 µM (inactive) in each case. Besides, the GI50 with OVCAR-4, in the assay with OVCAR-8, with RPMI-8226, in the assay with SNB-75, in the assay with SR and in the assay on TK-10 was > 100 µM (inactive) each time. In addition, the GI50 with UO-31 is > 100 µM (inactive).

With `CC(C)(C)Sc1nnc(SC(C)(C)C)c2c(SC(C)(C)C)nnc(O)c12`, the GI50 with 786-0 was 10.1 µM (inactive); in the assay with HCC 2998, 11.5 µM (inactive); with LOX IMVI, 11.7 µM (inactive); in the assay with Malme-3M, 13.1 µM (inactive); in the assay on NCI-H226 it was 15.2 µM (inactive); with NCI-H23, 10.9 µM (inactive). In addition, the GI50 in the assay on NCI-H522 was 3.61 µM (inactive); in the assay with OVCAR-3, 10.7 µM (inactive); in the assay with OVCAR-4, 2.16 µM (inactive); in the assay with OVCAR-8 it was 10 µM (inactive); with RPMI-8226, 2.8 µM (inactive); with SF-295 it was 11.4 µM (inactive). Further, the GI50 with SNB-75 is 11.8 µM (inactive); in the assay on SR, 4.14 µM (inactive); in the assay on TK-10, 23.2 µM (inactive); in the assay on UACC-62, 9.91 µM (inactive); with UO-31 it was 5.73 µM (inactive).

In the case of `OC1CCC[C@@H]1Sc1ccccc1` (stereo partly drawn), the GI50 in the assay on 786-0, with HCC 2998, in the assay on LOX IMVI, in the assay on NCI-H23, in the assay with OVCAR-3 and in the assay on OVCAR-4 was > 100 µM (inactive) in each case. The GI50 in the assay on OVCAR-8, in the assay on RPMI-8226, in the assay on SF-295, in the assay with SNB-75, in the assay with SR and in the assay on TK-10 was > 100 µM (inactive) throughout. Also, the GI50 in the assay with UACC-62 is 57.8 µM (inactive); with UO-31, > 100 µM (inactive).

(Values after ChEMBL document CHEMBL1201862, “PubChem BioAssay data set” (2004).)
